Holding throughout (format): cell-based
Test [1] deals with Cephalothin(CET)sensitive E. coli (2 strains), K. pneumoniae (1) and P. mirabilis (2). Kind of test: MIC by two-fold serial agar dilution in Mueller-Hinton agar, Gn-Ia. The following applies: read-out: Geometric Mean of MIC. Here is the method:
(§1) In the primary evaluation of the compounds of this invention, the Minimum Inhibitory Concentrations (MIC's) of the compounds were determined by the two-fold serial agar dilution method in Mueller-Hinton agar against 32 strains of test organisms in six groups.
GnIa: Cephalothin(CET)sensitive E. coli (2 strains), K. pneumoniae (1) an […]
A general note: Agar dilution tests growth on a series of plates holding different concentrations.

In test [2] the test system is Penicillin(PC)sensitive S. aureus. Put plainly: MIC by two-fold serial agar dilution in Mueller-Hinton agar, Gp-Ia. The following applies: Staphylococcus aureus. Here is the method: as §1
Gp-Ia: Penicillin(PC)sensitive S. aureus

Test [3] concerns M. morganii (1), E. cloacae (2) and S. marcescens (2). Put plainly: MIC by two-fold serial agar dilution in Mueller-Hinton agar, Gn-II. The following applies: read-out: Geometric Mean of MIC. Here is the method:
as §1
GnII: M. morganii (1), E. cloacae (2) and S. marcescens (2)

In a further test the test system is PCresistant S. aureus. Put plainly: MIC by two-fold serial agar dilution in Mueller-Hinton agar, Gp-Ib. The following applies: Staphylococcus aureus, Gp-Ib, 5 strains, PC-resistant S. aureus; read-out: Geometric Mean of MIC. The procedure:
as §1
GpIb: PCresistant S. aureus

Test [4] has as its system CETresistant E. coli (3) and K. pneumoniae (2). Kind of test: MIC by two-fold serial agar dilution in Mueller-Hinton agar, Gn-Ib. The conditions noted are these: Escherichia coli, read-out: Geometric Mean of MIC. The procedure:
as §1
GnIb: CETresistant E. coli (3) and K. pneumoniae (2)

The test system of another test is P. aeruginosa. Put plainly: MIC by two-fold serial agar dilution in Mueller-Hinton agar, Gn-III. The following applies: Pseudomonas aeruginosa, Gn-III, 7 strains, P. aeruginosa; read-out: Geometric Mean of MIC. Here is the method:
as §1

The mark [5] stands for this setting: Gn-Ia, 5 strains, CET-sensitive.
The mark [6] stands for this setting: Gp-Ia, 5 strains, PC-sensitive S. aureus, read-out: Geometric Mean of MIC.
The mark [7] stands for this setting: Gn-Ib, 5 strains, CET-resistant.
Where [8] appears, read: read-out: Geometric Mean of MIC, Gp-Ia, 5 strains, PC-sensitive S. aureus.

The structures appear in SMILES notation. Values after ≈ are worked out from the molar mass of the structure shown. Read-outs that look alike come from different tables or passages of the source.

Take `CO/N=C(\C(=O)NC1C(=O)N2C(C(=O)[O-])=C(C[N+]3(C)Cc4ccccc4C3)CS[C@H]12)c1csc(N)n1` (stereo partly drawn) [Example 14, 7-[(Z)-2-(2-Aminothiazol-4-yl)-2-methoxyiminoacetamido]-3-[(2-methyl-2-benzo[c]pyrrolinio)methyl]-3-cephem-4-carboxylate]: the MIC (in general, the least concentration at which growth counts as inhibited) in test [1] (setting [5]) was determined as 0.042 µg/mL (≈ 0.0795 µM); in test [2] (setting [6]), 0.51 µg/mL (≈ 0.965 µM); in test [3] (Gn-II, 5 strains), 0.13 µg/mL (≈ 0.246 µM); in the test on PCresistant S. aureus, 1.7 µg/mL (≈ 3.22 µM); in test [4] (setting [7]), 0.13 µg/mL (≈ 0.246 µM); in the test on P. aeruginosa, 7.7 µg/mL (≈ 14.6 µM).
In the case of `CO/N=C(\C(=O)NC1C(=O)N2C(C(=O)[O-])=C(C[N+]3(C)CCc4nc(N)sc4C3)CSC12)c1csc(N)n1` (stereo not drawn) [Example 15, 7-[(Z)-2-(2-Aminothiazol-4-yl)-2-methoxyiminoacetamido]-3-[(2-amino-4,5,7-tetrahydro-6-methyl-6-thiazolo[5,4-c]pyridinio)methyl]-3-cephem-4-carboxylate], the MIC is 0.034 µg/mL (≈ 0.0602 µM) in test [1] (setting [5]); 1.1 µg/mL (≈ 1.95 µM) in test [2] (setting [8]); 0.18 µg/mL (≈ 0.319 µM) in test [3] (Gn-II, 5 strains); 2.8 µg/mL (≈ 4.96 µM) in the test on PCresistant S. aureus; 0.16 µg/mL (≈ 0.283 µM) in test [4]; 4.6 µg/mL (≈ 8.15 µM) in the test on P. aeruginosa.
Turning to `CO/N=C(\C(=O)NC1C(=O)N2C(C(=O)[O-])=C(C[N+]3(CC(=O)O)CCCC3)CS[C@H]12)c1csc(N)n1` (stereo partly drawn) [Example 16, 7-[(Z)-2-(2-Aminothiazol-4-yl)-2-methoxyiminoacetamido]-3-[1-(carboxymethyl)pyrrolidinio]methyl-3-cephem-4-carboxylate], the MIC is 0.02 µg/mL (≈ 0.0381 µM) in test [1]; 6.5 µg/mL (≈ 12.4 µM) in test [2] (setting [6]); 0.14 µg/mL (≈ 0.267 µM) in test [3]; 17 µg/mL (≈ 32.4 µM) in the test on PCresistant S. aureus; 0.23 µg/mL (≈ 0.438 µM) in test [4]; 5.1 µg/mL (≈ 9.72 µM) in the test with P. aeruginosa.
For the compound `CO/N=C(\C(=O)NC1C(=O)N2C(C(=O)[O-])=C(C[N+]3(CCO)CCCC3)CSC12)c1csc(N)n1` (stereo not drawn) [Example 17], the MIC in test [1] (setting [5]) was found to be 0.057 µg/mL (≈ 0.112 µM); in test [2] (setting [6]) it was 1.6 µg/mL (≈ 3.13 µM); in test [3] it was 0.2 µg/mL (≈ 0.392 µM); with PCresistant S. aureus, 4.1 µg/mL (≈ 8.03 µM); in test [4], 0.15 µg/mL (≈ 0.294 µM); with P. aeruginosa it was 4.1 µg/mL (≈ 8.03 µM).
Turning to `C#CCO/N=C(\C(=O)NC1C(=O)N2C(C(=O)[O-])=C(C[N+]3(C)CCCC3)CSC12)c1csc(N)n1` (stereo not drawn) [Example 18, 7-[(Z)-2-(2-Aminothiazol-4-yl)-2-propargyloxyiminoacetamido]-3-(1-methyl-1-pyrrolidiniomethyl)-3-cephem-4-carboxylate], the MIC was 0.061 µg/mL (≈ 0.121 µM) in test [1] (setting [5]); 0.77 µg/mL (≈ 1.53 µM) in test [2] (setting [6]); 0.36 µg/mL (≈ 0.713 µM) in test [3] (Gn-II, 5 strains); 2.2 µg/mL (≈ 4.36 µM) with PCresistant S. aureus; 0.32 µg/mL (≈ 0.634 µM) in test [4]; 4 µg/mL (≈ 7.93 µM) in the test with P. aeruginosa.
Regarding `CO/N=C(\C(=O)NC1C(=O)N2C(C(=O)[O-])=C(C[N+]3(C)CCCC3C)CS[C@H]12)c1csc(N)n1` (stereo partly drawn) [Example 19, 7-[(Z)-2-(2-Aminothiazol-4-yl)-2-methoxyiminoacetamido]-3-(1,2-dimethylpyrrolidinio)methyl-3-cephem-4-carboxylate], the MIC was determined as 0.078 µg/mL (≈ 0.158 µM) in test [1] (setting [5]); 1.4 µg/mL (≈ 2.83 µM) in test [2] (setting [6]); 0.27 µg/mL (≈ 0.546 µM) in test [3] (Gn-II, 5 strains); 3.8 µg/mL (≈ 7.68 µM) in the test with PCresistant S. aureus; 0.27 µg/mL (≈ 0.546 µM) in test [4] (setting [7]); 6 µg/mL (≈ 12.1 µM) with P. aeruginosa.
In the case of `CO/N=C(\C(=O)NC1C(=O)N2C(C(=O)[O-])=C(C[N+]3(C)CCSCC3)CS[C@H]12)c1csc(N)n1` (stereo partly drawn) [Example 20, 7-[(Z)-2-(2-Aminothiazol-4-yl)-2-methoxyiminoacetamido]-3-(4-methylthiomorpholinio)methyl-3-cephem-4-carboxylate], the MIC in test [1] (setting [5]) came to 0.064 µg/mL (≈ 0.125 µM); in test [2] (setting [6]) it was 1.2 µg/mL (≈ 2.34 µM); in test [3] (Gn-II, 5 strains) it was 0.25 µg/mL (≈ 0.488 µM); with PCresistant S. aureus, 4.1 µg/mL (≈ 8 µM); in test [4] (setting [7]) it was 0.25 µg/mL (≈ 0.488 µM); in the test on P. aeruginosa, 3.7 µg/mL (≈ 7.22 µM).
With `C=CC[N+]1(CC2=C(C(=O)[O-])N3C(=O)C(NC(=O)/C(=N\OC)c4csc(N)n4)[C@H]3SC2)CCCC1` (stereo partly drawn) [Example 21, 7-[(Z)-2-(2-Aminothiazol-4-yl)-2-methoxyiminoacetamido]-3-(N-allylpyrrolidinio)methyl-3-cephem-4-carboxylate], the MIC in test [1] (setting [5]) is 0.045 µg/mL (≈ 0.0888 µM); in test [2] (setting [8]) it was 1.1 µg/mL (≈ 2.17 µM); in test [3] (Gn-II, 5 strains), 0.18 µg/mL (≈ 0.355 µM); with PCresistant S. aureus, 2.9 µg/mL (≈ 5.72 µM); in test [4], 0.15 µg/mL (≈ 0.296 µM); in the test on P. aeruginosa, 6.5 µg/mL (≈ 12.8 µM).

The values above are taken from patent US4525473A, “Cephalosporins” (Bristol-Myers Company, priority 1983, dated 1985).
